Experimental data taken from patent publication US9763925B2, “Antibacterial compounds” (SUMMIT THERAPEUTICS PLC, priority 2008, dated 2017).
Values after ≈ are worked out from the molar mass of the structure shown.

How the values were obtained:
[1] = test system: Clostridium perfringens clinical isolate (CI); assay: microbe, parasite or virus in culture; type: cell-based; details: read-out: MIC (CI)
[2] = test system: Clostridium difficile ATCC700057; assay: microbe, parasite or virus in culture; type: cell-based; details: for MIC: Clostridioides difficile, ATCC700057, read-out: MIC (ATCC700057)
[3] = test system: Clostridium perfringens ATCC13124; assay: microbe, parasite or virus in culture; type: cell-based; details: ATCC13124, read-out: MIC (ATCC13124)
[4] = test system: Streptococcus pneumoniae ATCC49619; assay: MIC by broth microdilution against Streptococcus pneumoniae ATCC49619; details: ATCC49619, read-out: MIC (ATCC49619)
[5] = test system: MDR Enterococcus faecium strain (MDR); assay: MIC by broth microdilution against MDR Enterococcus faecium; details: read-out: MIC (MDR)
[6] = test system: Staphylococcus aureus ATCC29213; assay: MIC by broth microdilution against Staphylococcus aureus ATCC29213; details: ATCC29213, read-out: MIC (ATCC29213)
[7] = test system: MDR Staphylococcus aureus strain (MDR); assay: MIC by broth microdilution against MDR Staphylococcus aureus; details: read-out: MIC (MDR)
Enterococcus faecium = assay: MIC by broth microdilution against Enterococcus faecium
[8] = test system: MDR Streptococcus pneumoniae strain (MDR); assay: MIC by broth microdilution against MDR Streptococcus pneumoniae; details: read-out: MIC (MDR)
Bacillus subtilis = type: cell-based

| SMILES | MIC [1] | MIC [2] | MIC [3] | MIC [4] | MIC [5] | MIC [6] | MIC [7] | MIC (Enterococcus faecium) | MIC [8] | selectivity for Clostridium difficile [2] | antibacterial activity against Bacillus subtilis (Bacillus subtilis) |
| --- | --- | --- | --- | --- | --- | --- | --- | --- | --- | --- | --- |
| Nc1ccc(-c2nc3cc(-c4ccc5[nH]cnc5c4)ccc3[nH]2)cc1 [Compound 8, 4-(1H,1′H-5,5′-bibenzo[d]imidazol-2-yl)aniline] | 1 to 16 µg/mL (≈ 3.07 to 49.2 µM) | 1 to 16 µg/mL (≈ 3.07 to 49.2 µM) | 17 to 64 µg/mL (≈ 52.2 to 197 µM) | 1 to 16 µg/mL (≈ 3.07 to 49.2 µM) | 1 to 16 µg/mL (≈ 3.07 to 49.2 µM) | 1 to 16 µg/mL (≈ 3.07 to 49.2 µM) | 17 to 64 µg/mL (≈ 52.2 to 197 µM) | 1 to 16 µg/mL (≈ 3.07 to 49.2 µM) | 1 to 16 µg/mL (≈ 3.07 to 49.2 µM) |  |  |
| Nc1ccc(-c2nc3cc(-c4ccc5nc(-c6ccc(N)cc6)[nH]c5c4)ccc3[nH]2)cc1 [Compound 1, 4,4′-(1H,3′H-5,5′-bibenzo[d]imidazole-2,2′-diyl)dianiline] | < 1 µg/mL | < 1 µg/mL | < 1 µg/mL | < 1 µg/mL | < 1 µg/mL | < 1 µg/mL | < 1 µg/mL | < 1 µg/mL | < 1 µg/mL |  |  |
| Nc1ccc(-c2nc3cc(-c4ccc5[nH]c(-c6ccccc6)nc5c4)ccc3[nH]2)cc1 [Compound 9, 4-(2′-phenyl-1H,1′H-5,5′-bibenzo[d]imidazol-2-yl)aniline] | 1 to 16 µg/mL (≈ 2.49 to 39.9 µM) | 1 to 16 µg/mL (≈ 2.49 to 39.9 µM) | 17 to 64 µg/mL (≈ 42.3 to 159 µM) | < 1 µg/mL | < 1 µg/mL | 1 to 16 µg/mL (≈ 2.49 to 39.9 µM) | 1 to 16 µg/mL (≈ 2.49 to 39.9 µM) | < 1 µg/mL | < 1 µg/mL |  |  |
| COc1ccc(-c2nc3ccc(-c4ccc5[nH]c(-c6ccccc6)nc5c4)cc3[nH]2)cc1 [Compound 10, 2′-(4-methoxyphenyl)-2-phenyl-1H,3′H-5,5′-bibenzo[d]imidazole] | < 1 µg/mL | < 1 µg/mL | 1 to 16 µg/mL (≈ 2.4 to 38.4 µM) | < 1 µg/mL | < 1 µg/mL | < 1 µg/mL | < 1 µg/mL | < 1 µg/mL | < 1 µg/mL |  |  |
| Cn1c(-c2ccc(N)cc2)nc2ccc(-c3ccc4[nH]c(-c5ccc(N)cc5)nc4c3)cc21 [Compound 4, 4,4′-(3′-methyl-1H,3′H-5,5′-bibenzo[d]imidazole-2,2′-diyl)dianiline] | > 64 µg/mL | 17 to 64 µg/mL (≈ 39.5 to 149 µM) | > 64 µg/mL | < 1 µg/mL | < 1 µg/mL | > 64 µg/mL | > 64 µg/mL | 1 to 16 µg/mL (≈ 2.32 to 37.2 µM) | 1 to 16 µg/mL (≈ 2.32 to 37.2 µM) |  |  |
| Nc1ccc(-c2nc3cc(-c4ccc5[nH]c(-c6ccc(N)nc6)nc5c4)ccc3[nH]2)cn1 [Compound 11, 5,5′-(1H,1′H-5,5′-bibenzo[d]imidazole-2,2′-diyl)dipyridin-2-amine] | > 64 µg/mL | < 1 µg/mL | 17 to 64 µg/mL (≈ 40.6 to 153 µM) | < 1 µg/mL | 1 to 16 µg/mL (≈ 2.39 to 38.2 µM) | > 64 µg/mL | > 64 µg/mL | 1 to 16 µg/mL (≈ 2.39 to 38.2 µM) | < 1 µg/mL |  |  |
| Oc1ccc(-c2nc3cc(-c4ccc5[nH]c(-c6ccc(O)cc6)nc5c4)ccc3[nH]2)cc1 [Compound 3, 4,4′-(1H,1′H-5,5′-bibenzo[d]imidazole-2,2′-diyl)diphenol] | 1 to 16 µg/mL (≈ 2.39 to 38.2 µM) | < 1 µg/mL | 1 to 16 µg/mL (≈ 2.39 to 38.2 µM) | < 1 µg/mL | < 1 µg/mL | < 1 µg/mL | < 1 µg/mL | < 1 µg/mL | < 1 µg/mL |  |  |
| CNc1ccc(-c2nc3cc(-c4ccc5[nH]c(-c6ccc(NC)cc6)nc5c4)ccc3[nH]2)cc1 [Compound 6, 4,4′-(1H,1′H-5,5′-bibenzo[d]imidazole-2,2′-diyl)bis(N-methylaniline)] | 1 to 16 µg/mL (≈ 2.25 to 36 µM) | 1 to 16 µg/mL (≈ 2.25 to 36 µM) | 1 to 16 µg/mL (≈ 2.25 to 36 µM) | < 1 µg/mL | < 1 µg/mL | < 1 µg/mL | < 1 µg/mL | < 1 µg/mL | < 1 µg/mL |  |  |
| c1cc(-c2nc3cc(-c4ccc5[nH]c(-c6ccncc6)nc5c4)ccc3[nH]2)ccn1 [Compound 12, 2,2′-di(pyridin-4-yl)-1H,1′H-5,5′-bibenzo[d]imidazole] | > 64 µg/mL | < 1 µg/mL | > 64 µg/mL | < 1 µg/mL | > 64 µg/mL | > 64 µg/mL | > 64 µg/mL | > 64 µg/mL | < 1 µg/mL | highly selective for Clostridium difficile | no significant antibacterial activity |
| Cn1c(-c2ccc(N)cc2)nc2cc(-c3ccc4[nH]c(-c5ccc(N)cc5)nc4c3)ccc21 [Compound 5, 4,4′-(1-methyl-1H,1′H-5,5′-bibenzo[d]imidazole-2,2′-diyl)dianiline] | 1 to 16 µg/mL (≈ 2.32 to 37.2 µM) | 1 to 16 µg/mL (≈ 2.32 to 37.2 µM) | 1 to 16 µg/mL (≈ 2.32 to 37.2 µM) | < 1 µg/mL | < 1 µg/mL | 1 to 16 µg/mL (≈ 2.32 to 37.2 µM) | 1 to 16 µg/mL (≈ 2.32 to 37.2 µM) | < 1 µg/mL | < 1 µg/mL |  |  |
| COc1ccc(-c2nc3cc(-c4ccc5[nH]c(-c6ccc(OC)cc6)nc5c4)ccc3[nH]2)cc1 [Compound 7, 2,2′-bis(4-methoxyphenyl)-1H,1′H-5,5′-bibenzo[d]imidazole] | < 1 µg/mL | < 1 µg/mL | < 1 µg/mL | < 1 µg/mL | < 1 µg/mL | < 1 µg/mL | < 1 µg/mL | < 1 µg/mL | < 1 µg/mL |  |  |
| Nc1cccc(-c2nc3cc(-c4ccc5[nH]c(-c6cccc(N)c6)nc5c4)ccc3[nH]2)c1 [Compound 2, 3,3′-(1H,1′H-5,5′-bibenzo[d]imidazole-2,2′-diyl)dianiline] | > 64 µg/mL | 1 to 16 µg/mL (≈ 2.4 to 38.4 µM) | > 64 µg/mL | 1 to 16 µg/mL (≈ 2.4 to 38.4 µM) | 1 to 16 µg/mL (≈ 2.4 to 38.4 µM) | 1 to 16 µg/mL (≈ 2.4 to 38.4 µM) | > 64 µg/mL | 1 to 16 µg/mL (≈ 2.4 to 38.4 µM) | 1 to 16 µg/mL (≈ 2.4 to 38.4 µM) |  |  |
